Test results taken from US5023084A, “Transdermal estrogen/progestin dosage unit, system and process” (Rutgers, The State University of New Jersey, priority 1988, dated 1991).

Test: Permeation of estradiol and levonorgestrel across adult male human cadaver skin
Format: in vitro ADME
Settings: not given
Protocol: Layer 2 contains levonorgestrel and layer 4 contains 17-beta-estradiol.
The primary and secondary enhancing agents are incorporated into levonorgestrel containing layer 2. The amounts of primary and secondary enhancing agents specified in Table 16 are used in making dosage units.
Permeation rates (mcg/sq. cm/hr±S.D.) are determined using the in vitro procedure of Y. W. Chien et al. identified in Example 1 using human cadaver skin.

Row | SMILES | Estradiol/Levonorgestrel Rate/Ratio | Permeation Rate, Estradiol | Permeation Rate, Levonorgestrel
1 | CCCCCCCCCCCCCCCC(=O)OC/C=C(C)/C=C/C=C(C)/C=C/C1=C(C)CCCC1(C)C [Retinyl Palmitate, retinyl palmitate] | 1.0 (0.13) | 0.18 (0.030) mcg/sq. cm/hr | 0.176 (0.027) mcg/sq. cm/hr
2 | CCCCCCCCCCO [n-Decyl Alcohol, n-decyl alcohol] | 2.4 (0.21) | – | –
3 | CC1=C(/C=C/C(C)=C/C=C/C(C)=C/CO)C(C)(C)CCC1 [Retinol, retinol] | 1.5 (0.11) | 0.21 (0.040) mcg/sq. cm/hr | 0.141 (0.019) mcg/sq. cm/hr
4 | Cc1c(C)c2c(c(C)c1O)CCC(C)(CCCC(C)CCCC(C)CCCC(C)C)O2 (racemic) [dl-alpha-Tocopherol] | 1.6 (0.10) | 0.20 (0.031) mcg/sq. cm/hr | 0.127 (0.021) mcg/sq. cm/hr
5 | CC1=C(/C=C/C(C)=C/C=C/C(C)=C/C(=O)O)C(C)(C)CCC1 [Retinoic Acid, retinoic acid] | 1.4 (0.16) | 0.22 (0.033) mcg/sq. cm/hr | 0.159 (0.024) mcg/sq. cm/hr
6 | CC(=O)Oc1c(C)c(C)c2c(c1C)CCC(C)(CCCC(C)CCCC(C)CCCC(C)C)O2 (racemic) [dl-alpha-Tocopherol Acetate] | 1.0 (0.07) | 0.18 (0.024) mcg/sq. cm/hr | 0.182 (0.029) mcg/sq. cm/hr

Same assay, conditions: dosage unit with […] W/W n-decyl alcohol, with or without 5.0% secondary enhancer; S.D. in parentheses

Row | SMILES | Permeation Rate, Estradiol | Permeation Rate, Levonorgestrel
7 | CCCCCCCCCCO [n-Decyl Alcohol, n-decyl alcohol] | 0.19 (0.031) mcg/sq. cm/hr | 0.080 (0.017) mcg/sq. cm/hr

Test: not given
Settings: oral; cited from earlier work

Row | SMILES | 17-beta-estradiol destroyed when taken orally
8 | C[C@]12CC[C@@H]3c4ccc(O)cc4CC[C@H]3[C@@H]1CC[C@@H]2O [17-beta-estradiol] | over 90%
